For 26 molecules, IC50 results are on record in patent US11203613B2, “Peptidomimetic proteasome inhibitors” (CORNELL UNIVERSITY, priority 2017, dated 2021).

pIC50: −log10 of the molar value.

In this experiment the target is Human Constitutive (Hu C-20S) β5 Active Subunit (Homo sapiens, UniProt P28074). Nature of the experiment: IC50 determination, human constitutive 20S proteasome β5c (suc-LLVY-AMC hydrolysis). The conditions noted are these: Table 3; IC50 against human constitutive β5 active subunit; read-out: Hu-C20S β5. Type of experiment: biochemical.
Take `CC(C)CCC(=O)N[C@@H](CC(=O)N1CCCC1)C(=O)N[C@@H](C)c1ncc(-c2ccc(F)cc2F)[nH]1` [CEN-77, N—((S)-1-(((S)-1-(5-(2,4-Difluorophenyl)-1H-imidazol-2-yl)ethyl)amino)-1,4-dioxo-4-(pyrrolidin-1-yl)butan-2-yl)-4-methylpentanamide]: the pIC50 was 4.98.

As for `CC(C)CCC(=O)N[C@@H](CC(=O)N(C)C(C)C)C(=O)N[C@@H](C)c1ncc(-c2ccc(F)cc2F)[nH]1` [CEN-78, (S)—N1-((S)-1-(5-(2,4-Difluorophenyl)-1H-imidazol-2-yl)ethyl)-N4-isopropyl-N4-methyl-2-(4-methylpentanamido)succinamide], the pIC50 was 4.83.

Turning to `CCN(CC)C(=O)C[C@H](NC(=O)CCC(C)C)C(=O)N[C@@H](C)c1ncc(-c2ccc(F)cc2F)[nH]1` [CEN-79, (S)—N1-((S)-1-(5-(2,4-Difluorophenyl)-1H-imidazol-2-yl)ethyl)-N4,N4-diethyl-2-(4-methylpentanamido)succinamide], the pIC50 was 5.14.

Turning to `Cc1cc(C(=O)N[C@@H](CC(=O)N2CCCC2)C(=O)N[C@@H](C)c2ncc(-c3ccc(F)cc3F)[nH]2)no1` [CEN-80, N—((S)-1-(((S)-1-(5-(2,4-Difluorophenyl)-1H-imidazol-2-yl)ethyl)amino)-1,4-dioxo-4-(pyrrolidin-1-yl)butan-2-yl)-5-methylisoxazole-3-carboxamide], the pIC50 is 4.78.

Take `C[C@H](NC(=O)[C@H](CC(=O)N1CCCC[C@@H]1C)NC(=O)CC1CC1)c1ncc(-c2ccc(F)cc2F)[nH]1` [CEN-81, (S)-2-(2-Cyclopropylacetamido)-N—((S)-1-(5-(2,4-difluorophenyl)-1H-imidazol-2-yl)ethyl)-4-((S)-2-methylpiperidin-1-yl)-4-oxobutanamide]: the pIC50 is 4.98.

For `C[C@H](NC(=O)[C@H](CC(=O)N1CCCC[C@@H]1C)NC(=O)C1CCC1)c1ncc(-c2ccc(F)cc2F)[nH]1` [CEN-82, N—((S)-1-(((S)-1-(5-(2,4-Difluorophenyl)-1H-imidazol-2-yl)ethyl)amino)-4-((S)-2-methylpiperidin-1-yl)-1,4-dioxobutan-2-yl)cyclobutanecarboxamide], the pIC50 was 5.62.

As to `C[C@H](NC(=O)[C@H](CC(=O)N1CCCC1)NC(=O)CCC(C)(C)C)c1ncc(-c2ccc(F)cc2F)[nH]1` [CEN-83, N—((S)-1-(((S)-1-(5-(2,4-Difluorophenyl)-1H-imidazol-2-yl)ethyl)amino)-1,4-dioxo-4-(pyrrolidin-1-yl)butan-2-yl)-4,4-dimethylpentanamide], the pIC50 is 4.99. For `CC(C)CCC(=O)N[C@@H](CC(=O)N1CCCCC1)C(=O)N[C@@H](C)c1ncc(-c2ccc(F)cc2F)[nH]1` [CEN-84, N—((S)-1-(((S)-1-(5-(2,4-Difluorophenyl)-1H-imidazol-2-yl)ethyl)amino)-1,4-dioxo-4-(piperidin-1-yl)butan-2-yl)-4-methylpentanamide] the value was 5.14; for `CC(C)C(=O)CN[C@@H](CC(=O)N1CCCC[C@@H]1C)C(=O)N[C@@H](C)c1ncc(-c2ccc(F)cc2F)[nH]1` [CEN-85, (S)—N—((S)-1-(5-(2,4-Difluorophenyl)-1H-imidazol-2-yl)ethyl)-2-((3-methyl-2-oxobutyl)amino)-4-((S)-2-methylpiperidin-1-yl)-4-oxobutanamide], 5.00; for `CCS(=O)(=O)N[C@@H](CC(=O)N1CCCC[C@@H]1C)C(=O)N[C@@H](C)c1ncc(-c2ccc(F)cc2F)[nH]1` [CEN-86, (S)—N—((S)-1-(5-(2,4-Difluorophenyl)-1H-imidazol-2-yl)ethyl)-2-(ethylsulfonamido)-4-((S)-2-methylpiperidin-1-yl)-4-oxobutanamide], 4.55.

As for `C[C@H](NC(=O)[C@H](CC(=O)N1CCCC[C@@H]1C)NC(=O)CCC1CC1)c1ncc(-c2ccc(F)cc2F)[nH]1` [CEN-87, (S)-2-(3-Cyclopropylpropanamido)-N—((S)-1-(5-(2,4-difluorophenyl)-1H-imidazol-2-yl)ethyl)-4-((S)-2-methylpiperidin-1-yl)-4-oxobutanamide], the pIC50 was 4.93. In the case of `CC(C)CCC(=O)N[C@@H](CC(=O)N1CCCC[C@@H]1C)C(=O)N[C@@H](C)c1ncc(-c2ccc(F)cc2F)[nH]1` [CEN-88, N—((S)-1-(((S)-1-(5-(2,4-Difluorophenyl)-1H-imidazol-2-yl)ethyl)amino)-4-((S)-2-methylpiperidin-1-yl)-1,4-dioxobutan-2-yl)-4-methylpentanamide] it was 4.82.

On to `C[C@H](NC(=O)[C@H](CC(=O)N1CCC[C@@H]1C)NC(=O)CCC(C)(C)C)c1ncc(-c2ccc(F)cc2F)[nH]1` [CEN-89, N—((S)-1-(((S)-1-(5-(2,4-Difluorophenyl)-1H-imidazol-2-yl)ethyl)amino)-4-((S)-2-methylpyrrolidin-1-yl)-1,4-dioxobutan-2-yl)-4,4-dimethylpentanamide], for which the pIC50 is 5.24. For `CC(C)CCC(=O)N[C@@H](CC(=O)N1CCCCCC1)C(=O)N[C@@H](C)c1ncc(-c2ccc(F)cc2F)[nH]1` [CEN-90, N—((S)-4-(Azepan-1-yl)-1-(((S)-1-(5-(2,4-difluorophenyl)-1H-imidazol-2-yl)ethyl)amino)-1,4-dioxobutan-2-yl)-4-methylpentanamide] the value was 4.99; for `CC(C)CCC(=O)N[C@@H](CC(=O)N1CCCC[C@H]1C)C(=O)N[C@@H](C)c1ncc(-c2ccc(F)cc2F)[nH]1` [CEN-91, N—((S)-1-(((S)-1-(5-(2,4-Difluorophenyl)-1H-imidazol-2-yl)ethyl)amino)-4-((R)-2-methylpiperidin-1-yl)-1,4-dioxobutan-2-yl)-4-methylpentanamide], 4.98; for `CC(C)CCC(=O)N[C@@H](CC(=O)N1CCOC[C@@H]1C)C(=O)N[C@@H](C)c1ncc(-c2ccc(F)cc2F)[nH]1` [CEN-92, N—((S)-1-(((S)-1-(5-(2,4-Difluorophenyl)-1H-imidazol-2-yl)ethyl)amino)-4-((S)-3-methylmorpholino)-1,4-dioxobutan-2-yl)-4-methylpentanamide], 4.82. For `C[C@H](NC(=O)[C@H](CC(=O)N1CCCC[C@@H]1C)NC(=O)c1cn(C)cn1)c1ncc(-c2ccc(F)cc2F)[nH]1` [CEN-93, N—((S)-1-(((S)-1-(5-(2,4-Difluorophenyl)-1H-imidazol-2-yl)ethyl)amino)-4-((S)-2-methylpiperidin-1-yl)-1,4-dioxobutan-2-yl)-1-methyl-1H-imidazole-4-carboxamide] the value was 4.96; for `Cc1cc(C(=O)N[C@@H](CC(=O)N2CCCC[C@@H]2C)C(=O)N[C@@H](C)c2ncc(-c3ccc(F)cc3F)[nH]2)no1` [CEN-94, N—((S)-1-(((S)-1-(5-(2,4-Difluorophenyl)-1H-imidazol-2-yl)ethyl)amino)-4-((S)-2-methylpiperidin-1-yl)-1,4-dioxobutan-2-yl)-5-methylisoxazole-3-carboxamide], 5.26; for `CC(C)c1noc(N[C@@H](CC(=O)N2CCCC[C@@H]2C)C(=O)N[C@@H](C)c2ncc(-c3ccc(F)cc3F)[nH]2)n1` [CEN-95, (S)—N—((S)-1-(5-(2,4-Difluorophenyl)-1H-imidazol-2-yl)ethyl)-2-((3-isopropyl-1,2,4-oxadiazol-5-yl)amino)-4-((S)-2-methylpiperidin-1-yl)-4-oxobutanamide], 5.64. As for `C[C@H](NC(=O)[C@H](CC(=O)N1CCCC[C@@H]1C)NC(=O)C1CC(C)(C)C1)c1ncc(-c2ccc(F)cc2F)[nH]1` [CEN-96, N—((S)-1-(((S)-1-(5-(2,4-difluorophenyl)-1H-imidazol-2-yl)ethyl)amino)-4-((S)-2-methylpiperidin-1-yl)-1,4-dioxobutan-2-yl)-3,3-dimethylcyclobutane-1-carboxamide], the pIC50 was 5.24. In the case of `CC(C)C1CC1C(=O)N[C@@H](CC(=O)N1CCCC[C@@H]1C)C(=O)N[C@@H](C)c1ncc(-c2ccc(F)cc2F)[nH]1` (stereo partly drawn) [CEN-97, N—((S)-1-(((S)-1-(5-(2,4-Difluorophenyl)-1H-imidazol-2-yl)ethyl)amino)-4-((S)-2-methylpiperidin-1-yl)-1,4-dioxobutan-2-yl)-2-isopropylcyclopropane-1-carboxamide] it was 5.32; in that of `C[C@H](NC(=O)[C@H](CC(=O)N1CCCC[C@@H]1C)NC(=O)c1cncs1)c1ncc(-c2ccc(F)cc2F)[nH]1` [CEN-98, N—((S)-1-(((S)-1-(5-(2,4-Difluorophenyl)-1H-imidazol-2-yl)ethyl)amino)-4-((S)-2-methylpiperidin-1-yl)-1,4-dioxobutan-2-yl)thiazole-5-carboxamide], 5.15; in that of `C[C@H](NC(=O)[C@H](CC(=O)N1CCCC[C@@H]1C)NC(=O)CCC(C)(C)C)c1ncc(-c2ccc(F)cc2F)[nH]1` [CEN-99, N—((S)-1-(((S)-1-(5-(2,4-Difluorophenyl)-1H-imidazol-2-yl)ethyl)amino)-4-((S)-2-methylpiperidin-1-yl)-1,4-dioxobutan-2-yl)-4,4-dimethylpentanamide], 5.07.

In the case of `CC[C@H]1CCCCN1C(=O)C[C@H](NC(=O)CCC(C)C)C(=O)N[C@@H](C)c1ncc(-c2ccc(F)cc2F)[nH]1` [CEN-100, N—((S)-1-(((S)-1-(5-(2,4-Difluorophenyl)-1H-imidazol-2-yl)ethyl)amino)-4-((S)-2-ethylpiperidin-1-yl)-1,4-dioxobutan-2-yl)-4-methylpentanamide], the pIC50 is 5.36. In the case of `C[C@H](NC(=O)N(CC(=O)N1CCCC[C@@H]1C)NC(=O)CCC(C)(C)C)c1ncc(-c2ccc(F)cc2F)[nH]1` [CEN-101, N—((S)-1-(5-(2,4-Difluorophenyl)-1H-imidazol-2-yl)ethyl)-2-(4,4-dimethylpentanoyl)-1-(2-((S)-2-methylpiperidin-1-yl)-2-oxoethyl)hydrazine-1-carboxamide] it was 5.12; in that of `C[C@H](NC(=O)[C@H](CC(=O)N1CCCC[C@@H]1C)NC(=O)Cc1ccccc1)c1ncc(-c2ccc(F)cc2F)[nH]1` [CEN-102, (S)—N—((S)-1-(5-(2,4-Difluorophenyl)-1H-imidazol-2-yl)ethyl)-4-((S)-2-methylpiperidin-1-yl)-4-oxo-2-(2-phenylacetamido)butanamide], 4.99.
